2 compounds from ChEMBL document CHEMBL5653615 (J Biol Chem, 2013) can be followed below.

SMILES strings stand for the structures.

The target in assay [1] is T1, Dual specificity tyrosine-phosphorylation-regulated kinase 2 (Homo sapiens) (UniProt Q92630).
T1 sequence (whole entry): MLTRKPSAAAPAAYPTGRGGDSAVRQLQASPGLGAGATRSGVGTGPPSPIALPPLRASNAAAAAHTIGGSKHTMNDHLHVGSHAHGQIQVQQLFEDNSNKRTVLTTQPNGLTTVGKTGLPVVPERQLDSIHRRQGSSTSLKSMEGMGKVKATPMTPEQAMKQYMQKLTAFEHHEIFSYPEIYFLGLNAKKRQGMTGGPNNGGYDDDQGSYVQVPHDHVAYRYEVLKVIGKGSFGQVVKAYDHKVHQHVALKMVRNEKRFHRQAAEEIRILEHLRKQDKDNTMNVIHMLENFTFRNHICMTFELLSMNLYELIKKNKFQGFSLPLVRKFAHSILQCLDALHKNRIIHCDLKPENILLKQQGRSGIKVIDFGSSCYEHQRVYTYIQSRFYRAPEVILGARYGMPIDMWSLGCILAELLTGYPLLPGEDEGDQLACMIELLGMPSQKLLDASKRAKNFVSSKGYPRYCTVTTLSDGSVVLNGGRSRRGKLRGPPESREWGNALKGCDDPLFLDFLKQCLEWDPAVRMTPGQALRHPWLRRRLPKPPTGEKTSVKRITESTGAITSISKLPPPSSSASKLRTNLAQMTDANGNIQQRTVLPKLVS
In words: Inhibition of human DYRK2 at 18.6 nM by HotSpot assay relative to control.

In assay [2] the target is T2, Tyrosine-protein kinase TXK (Homo sapiens) (UniProt P42681).
T2 sequence (whole entry): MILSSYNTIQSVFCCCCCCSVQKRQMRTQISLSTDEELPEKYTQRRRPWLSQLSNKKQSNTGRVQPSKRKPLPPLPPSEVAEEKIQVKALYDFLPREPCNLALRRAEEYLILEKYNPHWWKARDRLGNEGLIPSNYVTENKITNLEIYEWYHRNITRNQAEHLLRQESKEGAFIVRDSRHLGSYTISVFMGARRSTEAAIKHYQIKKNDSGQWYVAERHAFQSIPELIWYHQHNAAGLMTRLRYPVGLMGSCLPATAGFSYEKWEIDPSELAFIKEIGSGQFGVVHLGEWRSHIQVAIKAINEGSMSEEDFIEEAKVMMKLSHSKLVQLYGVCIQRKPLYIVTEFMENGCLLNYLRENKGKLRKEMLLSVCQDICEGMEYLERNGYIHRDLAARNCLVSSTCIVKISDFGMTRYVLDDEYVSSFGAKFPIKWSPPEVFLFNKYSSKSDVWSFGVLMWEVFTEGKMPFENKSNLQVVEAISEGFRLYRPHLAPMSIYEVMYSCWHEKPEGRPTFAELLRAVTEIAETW
In words: Inhibition of human TXK at 18.6 nM by HotSpot assay relative to control.

Assay [3] concerns the target T3, Serine/threonine-protein kinase ULK1 (Homo sapiens) (UniProt O75385).
T3 sequence (whole entry): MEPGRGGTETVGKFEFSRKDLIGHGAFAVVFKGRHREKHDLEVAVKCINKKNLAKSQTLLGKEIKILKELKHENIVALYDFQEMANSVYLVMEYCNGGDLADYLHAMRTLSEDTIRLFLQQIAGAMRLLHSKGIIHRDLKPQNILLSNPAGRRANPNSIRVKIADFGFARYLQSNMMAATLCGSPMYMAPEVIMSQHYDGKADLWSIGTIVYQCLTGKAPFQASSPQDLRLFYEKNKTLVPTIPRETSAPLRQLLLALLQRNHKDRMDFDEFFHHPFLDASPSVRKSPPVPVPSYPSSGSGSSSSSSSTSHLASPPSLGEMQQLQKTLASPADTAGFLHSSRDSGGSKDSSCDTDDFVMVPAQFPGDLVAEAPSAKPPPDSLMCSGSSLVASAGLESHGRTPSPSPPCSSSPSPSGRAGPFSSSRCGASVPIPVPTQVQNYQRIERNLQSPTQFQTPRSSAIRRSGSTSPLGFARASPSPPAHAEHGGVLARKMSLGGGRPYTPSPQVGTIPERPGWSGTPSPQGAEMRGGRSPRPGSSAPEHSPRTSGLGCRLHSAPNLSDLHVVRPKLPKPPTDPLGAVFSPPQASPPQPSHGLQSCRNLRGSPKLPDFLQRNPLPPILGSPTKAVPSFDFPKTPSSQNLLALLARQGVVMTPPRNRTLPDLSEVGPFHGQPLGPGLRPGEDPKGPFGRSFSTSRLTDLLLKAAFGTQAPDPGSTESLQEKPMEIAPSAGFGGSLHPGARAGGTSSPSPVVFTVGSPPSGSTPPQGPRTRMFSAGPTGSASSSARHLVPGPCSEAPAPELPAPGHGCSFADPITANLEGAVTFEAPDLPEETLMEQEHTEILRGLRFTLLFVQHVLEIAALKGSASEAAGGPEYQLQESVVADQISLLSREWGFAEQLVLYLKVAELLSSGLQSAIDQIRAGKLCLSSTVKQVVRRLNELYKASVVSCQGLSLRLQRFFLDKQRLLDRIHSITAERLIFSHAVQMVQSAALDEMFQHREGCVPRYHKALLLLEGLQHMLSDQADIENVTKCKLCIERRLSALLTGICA
As to the kind of experiment: Inhibition of human ULK1 at 18.6 nM by HotSpot assay relative to control.

Assay [4] has as its target T1, Dual specificity tyrosine-phosphorylation-regulated kinase 2 (Homo sapiens). In words: Inhibition of human DYRK2 at 1.82 nM by HotSpot assay relative to control.
Assay [5] deals with T4, NUAK family SNF1-like kinase 1 (Homo sapiens) (UniProt O60285).
T4 sequence (whole entry): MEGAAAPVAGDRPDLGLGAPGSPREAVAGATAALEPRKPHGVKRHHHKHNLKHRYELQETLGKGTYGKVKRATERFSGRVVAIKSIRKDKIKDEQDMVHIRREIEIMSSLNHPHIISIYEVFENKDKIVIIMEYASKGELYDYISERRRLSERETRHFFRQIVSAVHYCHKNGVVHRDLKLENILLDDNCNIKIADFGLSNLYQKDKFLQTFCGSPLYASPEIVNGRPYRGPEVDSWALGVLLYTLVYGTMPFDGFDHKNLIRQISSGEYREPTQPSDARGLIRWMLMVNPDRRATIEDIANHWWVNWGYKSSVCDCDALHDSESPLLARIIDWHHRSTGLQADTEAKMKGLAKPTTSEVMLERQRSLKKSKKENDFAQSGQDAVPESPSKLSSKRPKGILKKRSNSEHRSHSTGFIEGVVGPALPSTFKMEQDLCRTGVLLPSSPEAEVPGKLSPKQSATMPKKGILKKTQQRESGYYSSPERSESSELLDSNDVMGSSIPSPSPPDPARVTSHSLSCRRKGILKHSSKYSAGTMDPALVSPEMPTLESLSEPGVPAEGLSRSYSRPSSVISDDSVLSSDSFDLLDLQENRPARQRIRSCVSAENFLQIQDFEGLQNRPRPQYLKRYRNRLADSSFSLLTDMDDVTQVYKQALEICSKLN
In words: Inhibition of human ARK5 at 1.82 nM by HotSpot assay relative to control.

Assay [6] has as its target Serine/threonine-protein kinase PAK 5 (Homo sapiens) (UniProt Q9P286). In words: Inhibition of human PAK5 at 1.82 nM by HotSpot assay relative to control.

Sequence of Serine/threonine-protein kinase PAK 5 (Homo sapiens) (Q9P286 whole entry, looked up): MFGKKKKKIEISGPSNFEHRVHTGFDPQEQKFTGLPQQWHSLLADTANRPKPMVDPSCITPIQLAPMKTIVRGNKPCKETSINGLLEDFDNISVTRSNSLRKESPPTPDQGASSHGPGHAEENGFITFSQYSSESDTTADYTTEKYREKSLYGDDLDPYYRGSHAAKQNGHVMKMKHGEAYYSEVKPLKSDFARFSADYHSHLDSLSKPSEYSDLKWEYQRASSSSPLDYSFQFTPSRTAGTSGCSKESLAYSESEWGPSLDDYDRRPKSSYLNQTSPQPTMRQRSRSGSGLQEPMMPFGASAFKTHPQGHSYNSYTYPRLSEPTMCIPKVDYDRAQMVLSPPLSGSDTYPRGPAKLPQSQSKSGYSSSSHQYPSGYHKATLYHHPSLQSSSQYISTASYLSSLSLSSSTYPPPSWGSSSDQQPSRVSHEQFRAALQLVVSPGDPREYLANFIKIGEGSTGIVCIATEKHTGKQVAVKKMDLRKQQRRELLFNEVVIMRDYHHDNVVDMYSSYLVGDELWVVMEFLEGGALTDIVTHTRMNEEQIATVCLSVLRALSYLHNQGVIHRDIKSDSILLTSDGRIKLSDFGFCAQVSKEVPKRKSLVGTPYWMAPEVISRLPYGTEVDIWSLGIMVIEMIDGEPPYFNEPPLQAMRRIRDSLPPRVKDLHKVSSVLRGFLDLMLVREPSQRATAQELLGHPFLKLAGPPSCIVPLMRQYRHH

For `C[C@]1(O)C[C@@H](c2nc(-c3ccc4ccc(-c5ccccc5)nc4c3)c3c(N)nccn32)C1`, the inhibition is -1.48% in assay [1], -8.77% in assay [2] and 2.65% in assay [3].
Consider `C[C@@]1(C(=O)Nc2ccc(F)nc2)CCCN1c1nc(Nc2cc(C3CC3)n[nH]2)c2cccn2n1`, for which the inhibition was 0% in assay [4], 1.78% in assay [5] and -4.48% in assay [6].

A word on the inhibition: it is the change of the read-out against control, counted positive when it falls.
